The text below walks through data of ChEMBL document CHEMBL1155968, “Synthesis, anticonvulsant and CNS depressant activity of some new bioactive 1-(4-substituted-phenyl)-3-(4-oxo-2-phenyl/ethyl-4H-quinazolin-3-yl)-urea” (Eur J Med Chem, 2009).

Activity calls are given as the source filed them. The calls are words filed in the database; no cut-off is given here.

Series [1] relates to Mus musculus. Put plainly: Neurotoxicity in ip dosed albino mouse assessed as minimal motor impairment after 4 hrs by rotarod test. The class given is toxicity, organism-based. The conditions noted are these: in vivo. On the technique in general: The rotarod test checks motor coordination on a turning rod.
In series [2] the test system is Mus musculus. In words: Behavioral activity in albino mouse assessed as decrease in locomotor activity at 100 mg/kg, ip by actophotometer. The class given is functional. The conditions noted are these: route intraperitoneal.
In series [3] the test system is Mus musculus. Put plainly: Anticonvulsant activity in ip dosed albino mouse assessed as inhibition of maximal electric shock-induced seizures after 0.5 hrs. The class given is functional.
Series [4] deals with Mus musculus. In words: Anticonvulsant activity in ip dosed albino mouse assessed as inhibition of maximal electric shock-induced seizures after 4 hrs. In kind it is functional.
Series [5] concerns Mus musculus. Put plainly: Neurotoxicity in ip dosed albino mouse assessed as minimal motor impairment after 0.5 hrs by rotarod test. The class given is toxicity, organism-based. The conditions noted are these: in vivo.
The subject of series [6] is Mus musculus. In words: Anticonvulsant activity in ip dosed albino mouse assessed as inhibition of subcutaneous pentylenetetrazole-induced seizure after 0.5 hrs. The class given is functional.
Series [7] concerns Rattus norvegicus. Put plainly: Antidepressant activity in Wistar rat assessed as increase in immobility time at 100 mg/kg, ip after 60 min by forced swim pool method. To be noted: route intraperitoneal. The class given is functional.
Series [8] concerns Mus musculus. Put plainly: Anticonvulsant activity in ip dosed albino mouse assessed as inhibition of subcutaneous pentylenetetrazole-induced seizure after 4 hrs. The class given is functional.

As for `CCc1nc2ccccc2c(=O)n1NC(=O)Nc1ccccc1C`, the Activity result in series [1] and in series [5] was “Not Active” in each case. Further, in series [2], the inhibition in vivo – broadly, the drop in the measured response relative to a control, in per cent – at 100 mg/kg came to 54%. Further, the result in series [3], in series [4], in series [6] and in series [8] was inactive. In addition, the Time in series [7] came to 186.3 s.
On to `CCc1nc2ccccc2c(=O)n1NC(=O)Nc1ccc(F)cc1`, for which the Activity entry in series [1] and in series [5] was “Not Active” throughout. Moreover, the inhibition in vivo at 100 mg/kg in series [2] came out at 51%. The result in series [3], in series [4], in series [6] and in series [8] was inactive. For the same compound, the Time in series [7] is on record as 248.32 s.
Take `Cc1ccccc1NC(=O)Nn1c(-c2ccccc2)nc2ccccc2c1=O`: the Activity entry in series [1] and in series [5] was “Not Active” each time. In series [2], the inhibition in vivo at 100 mg/kg was found to be 59%. Besides, the result in series [3], in series [4], in series [6] and in series [8] was inactive. In addition, the Time in series [7] came to 162.13 s.
Turning to `CCc1nc2ccccc2c(=O)n1NC(=O)Nc1ccc(I)cc1`, the Activity entry in series [1] and in series [5] was “Not Active” throughout. Besides, in series [2], the inhibition in vivo at 100 mg/kg was 55%. Further, the result in series [3], in series [4] and in series [8] was inactive. In addition, in series [7], the Time turned out to be 274.4 s.
Turning to `CCCC(CCC)C(=O)[O-].[Na+]` [VALPROATE SODIUM], the Activity was found to be 300 mg/kg in series [1]; 100 mg/kg in series [3]; 30 mg/kg in series [4]; 100 mg/kg in series [5]; 30 mg/kg in series [6]; 300 mg/kg in series [8].
For `O=C(Nc1ccc(F)cc1)Nn1c(-c2ccccc2)nc2ccccc2c1=O`, the Activity result in series [1] and in series [5] was “Not Active” in each case. The inhibition in vivo at 100 mg/kg in series [2] amounted to 54%. In addition, the outcome in series [3], in series [4], in series [6] and in series [8] was inactive. The Time in series [7] stood at 211.14 s.
As for `O=C(Nc1ccc([N+](=O)[O-])cc1)Nn1c(-c2ccccc2)nc2ccccc2c1=O`, the Activity entry in series [1] was “Not Active”; in series [3], 300 mg/kg; in series [5] it was 300 mg/kg; in series [6] it was 300 mg/kg. Further, in series [2], the inhibition in vivo at 100 mg/kg came out at 42%. The result in series [4] and in series [8] was inactive. The Time in series [7] amounted to 199.19 s.
On to `CCc1ccc(NC(=O)Nn2c(CC)nc3ccccc3c2=O)cc1`, for which the Activity entry in series [1] and in series [5] was “Not Active” throughout. For the same compound, the inhibition in vivo at 100 mg/kg in series [2] was found to be 58%. The outcome in series [3], in series [4], in series [6] and in series [8] was inactive. The Time in series [7] was 227.54 s.
In the case of `CCOc1ccc(NC(=O)Nn2c(CC)nc3ccccc3c2=O)cc1`, the Activity in series [1], in series [3] and in series [5] was 300 mg/kg throughout. Moreover, the inhibition in vivo at 100 mg/kg in series [2] was determined as 50%. In addition, the outcome in series [4], in series [6] and in series [8] was inactive. Further, the Time in series [7] is on record as 161.43 s.
Turning to `Cc1ccc(NC(=O)Nn2c(-c3ccccc3)nc3ccccc3c2=O)cc1`, the Activity entry was “Not Active” in series [1] and 300 mg/kg in series [5]. Besides, in series [2], the inhibition in vivo at 100 mg/kg turned out to be 54%. The result in series [3], in series [4], in series [6] and in series [8] was inactive. Further, the Time in series [7] is listed as 205.22 s.
Consider `Cc1cccc(NC(=O)Nn2c(-c3ccccc3)nc3ccccc3c2=O)c1`, for which the Activity result in series [1] and in series [5] was “Not Active” in each case. Besides, in series [2], the inhibition in vivo at 100 mg/kg came out at 59%. Besides, the result in series [3], in series [4], in series [6] and in series [8] was inactive. For the same compound, the Time in series [7] worked out at 171.24 s.
With `CCc1nc2ccccc2c(=O)n1NC(=O)Nc1ccccc1`, the inhibition in vivo at 100 mg/kg in series [2] turned out to be 54%. In addition, the values for the Activity in series [3], in series [5] and in series [6] were 100 mg/kg, 300 mg/kg and 300 mg/kg, respectively. Moreover, the outcome in series [4] and in series [8] was inactive. For the same compound, the Time in series [7] was determined as 170.1 s.
On to `O=C1NC(=O)C(c2ccccc2)(c2ccccc2)N1` [PHENYTOIN], for which the Activity in series [1] is 300 mg/kg; in series [3], 30 mg/kg; in series [4], 100 mg/kg; in series [5], 100 mg/kg; in series [6] it was 100 mg/kg; in series [8], 300 mg/kg. In series [2], the inhibition in vivo at 100 mg/kg came out at 69%.
On to `O=C(Nc1ccc(I)cc1)Nn1c(-c2ccccc2)nc2ccccc2c1=O`, for which the Activity result in series [1] is “Not Active”; in series [5], 300 mg/kg. Besides, in series [2], the inhibition in vivo at 100 mg/kg was found to be 60%. Also, the result in series [3] and in series [4] was inactive. The Time in series [7] is reported as 181.15 s.
`CCc1nc2ccccc2c(=O)n1NC(=O)Nc1ccc(C)cc1`: the Activity entry in series [1] is “Not Active”; in series [3], 100 mg/kg; in series [4], 300 mg/kg; in series [5], 300 mg/kg. For the same compound, the inhibition in vivo at 100 mg/kg in series [2] was 55%. In addition, the result in series [6] and in series [8] was inactive. Moreover, the Time in series [7] was determined as 243.42 s.
Take `O=C(Nc1ccc(Br)cc1)Nn1c(-c2ccccc2)nc2ccccc2c1=O`: the Activity result in series [1] is “Not Active”; in series [3] it was 100 mg/kg; in series [4], 300 mg/kg; in series [5], 300 mg/kg; in series [6], 300 mg/kg. For the same compound, the inhibition in vivo at 100 mg/kg in series [2] was found to be 58%. The Time in series [7] is reported as 228.53 s. The outcome in series [8] was inactive.
`COc1ccc(NC(=O)Nn2c(-c3ccccc3)nc3ccccc3c2=O)cc1`: the results for the Activity result in series [1], in series [5] and in series [6] were “Not Active”, 300 mg/kg and 300 mg/kg, respectively. The inhibition in vivo at 100 mg/kg in series [2] is 52%. For the same compound, the result in series [3], in series [4] and in series [8] was inactive. Further, the Time in series [7] stood at 229.15 s.
In the case of `CCc1nc2ccccc2c(=O)n1NC(=O)Nc1ccc(Cl)cc1`, the inhibition in vivo at 100 mg/kg in series [2] amounted to 52%. Moreover, the result in series [3], in series [4], in series [6] and in series [8] was inactive. The Activity result in series [5] is on record as “Not Active”. The Time in series [7] stood at 180.3 s.
Regarding `CCc1nc2ccccc2c(=O)n1NC(=O)Nc1ccc([N+](=O)[O-])cc1`, the Activity entry in series [1] is “Not Active”; in series [3] it was 300 mg/kg; in series [5] it was 100 mg/kg. Moreover, in series [2], the inhibition in vivo at 100 mg/kg was found to be 41%. Besides, the result in series [4], in series [6] and in series [8] was inactive. The Time in series [7] was 212.72 s.
As for `CCC1(c2ccccc2)C(=O)NC(=O)NC1=O` [PHENOBARBITAL], the figures for the Activity entry in series [1], in series [5] and in series [6] were “Not Active”, “Not Active” and 300 mg/kg, respectively. Also, the outcome in series [3], in series [4] and in series [8] was inactive.
As to `CCc1ccc(NC(=O)Nn2c(-c3ccccc3)nc3ccccc3c2=O)cc1`, the Activity result in series [1] and in series [5] was “Not Active” throughout. Also, in series [2], the inhibition in vivo at 100 mg/kg worked out at 61%. Also, the outcome in series [3], in series [4], in series [6] and in series [8] was inactive. Moreover, the Time in series [7] amounted to 213.13 s.
Take `CCc1nc2ccccc2c(=O)n1NC(=O)Nc1ccc(Br)cc1`: the Activity result was “Not Active” in series [1] and 300 mg/kg in series [5]. For the same compound, in series [2], the inhibition in vivo at 100 mg/kg is 54%. For the same compound, the result in series [3] and in series [4] was inactive. Besides, the Time in series [7] is 222.2 s.
For `CCc1nc2ccccc2c(=O)n1NC(=O)Nc1ccc(OC)cc1`, the inhibition in vivo at 100 mg/kg in series [2] came out at 48%. In addition, the result in series [3], in series [4], in series [6] and in series [8] was inactive. For the same compound, the Activity in series [5] turned out to be 300 mg/kg. Also, in series [7], the Time worked out at 141.17 s.
